# In publication PMC8219695 (Nature Communications, 2021):
# Values joined by “and” are separate entries in the source; they are usually repeats but may differ in a detail not shown here. Identical values can stand only once.
# Tests used:
# mKOR = target: T1, mKOR (Mus musculus, UniProt P33534); assay: [125I]BNtxA radioligand competition binding, mouse KOR
# T1 construct: expressed in transfected cells; membranes
# hMOR = target: T2, hMOR (Homo sapiens, UniProt P35372); assay: CAMYEL BRET cAMP agonist assay at hMOR; format: cell-based; settings: for cAMP %: hMOR, single replicates, source data Fig 6c
# T2 construct: expressed in transfected cells; plasmid a gift from Dr. Nevin Lambert
# mMOR [1] = target: T3, mMOR (Mus musculus, UniProt P42866); assay: [125I]BNtxA radioligand competition binding, mouse MOR
# T3 construct: signal peptide (heterologous, not specified) (N); expressed in transfected cells; pcDNA3.1(+) construct made in house
# mDOR [2] = target: T4, mDOR (Mus musculus, UniProt P32300); assay: CAMYEL BRET cAMP agonist assay at mDOR; format: cell-based; settings: for Agonist activity of 7OH analogs at mDOR: single replicate values, Supplementary Figure 7B, listed as 7-OH-Mitragynine
# T4 construct: expressed in transfected cells
# hDOR = hDOR (Homo sapiens, UniProt P41143); assay: CAMYEL BRET cAMP agonist assay at hDOR; format: cell-based; settings: for Agonist activity of 7OH analogs at hDOR: single replicate values, Supplementary Figure 7A, listed as 7-OH-Mitragynine
# hKOR = hKOR (Homo sapiens, UniProt P41145); assay: CAMYEL BRET cAMP agonist assay at hKOR; format: cell-based; settings: individual replicates, Supplementary Figure 8A source data
# mDOR [3] = target: T4, mDOR; assay: [125I]BNtxA radioligand competition binding, mouse DOR
# rKOR = target: T5, rKOR (Rattus norvegicus, UniProt P34975); assay: CAMYEL BRET cAMP agonist assay at rKOR; format: cell-based; settings: individual replicates, Supplementary Figure 8B source data
# T5 construct: expressed in transfected cells
# CD1 mice = assay: Tail-flick antinociception in CD1 mice; format: in vivo, mouse; settings: Fig 9b; 7OH 2 mg/kg, sc; individual animals
# mMOR [4] = target: T3, mMOR; assay: CAMYEL BRET cAMP agonist assay at mMOR; format: cell-based; settings: for cAMP %: single replicates, source data Fig 6b
compound,measurement,setting,value
"CC[C@@H]1CN2CC[C@@]3(O)C(=Nc4cccc(OC)c43)[C@@H]2C[C@@H]1/C(=C\OC)C(=O)OC [7OH, 7-Hydroxymitragynine, reference compound]",Ki,mKOR,119 ± 2.1 nM
same,Emax,hMOR,96%
same,cAMP %,hMOR; Log[drug] (M) -5,88.4213% and 90.605% and 95.9962% and 96.6598% and 92.1499% and 89.6322% and 104.97% and 106.65% and 107.127%
same,cAMP %,hMOR; Log[drug] (M) -6,85.9913% and 88.2699% and 100.077% and 95.6224% and 98.6028% and 95.7246% and 101.519% and 93.2699% and 100.898%
same,cAMP %,hMOR; Log[drug] (M) -7,74.1823% and 79.6011% and 86.6364% and 71.3053% and 75.9463% and 78.9671% and 86.5888% and 87.8073% and 87.9307%
same,cAMP %,hMOR; Log[drug] (M) -8,47.9539% and 40.673% and 45.9228% and 28.5173% and 37.309% and 37.8989% and 36.8098% and 40.2437% and 43.4509%
same,cAMP %,hMOR; Log[drug] (M) -9,-5.159% and -0.2818% and 15.9197% and 2.836% and 1.425% and -4.261% and 10.2218% and -0.8382% and 19.3398%
same,cAMP %,hMOR; Log[drug] (M) -10,2.406% and -6.901% and 4.4945% and -1.371% and 5.724% and -0.06095% and -1.689% and 0.384% and 1.305%
same,cAMP %,hMOR; Log[drug] (M) -11,10.0741% and 2.867% and -1.276% and 14.2755% and -12.2251% and 5.789% and 12.061% and -4.689% and 0.8824%
same,cAMP %,"hMOR; Log[drug] (M) -13, cAMP inhibition as % of DAMGO",3.998% and -9.01% and 9.508% and 14.9262% and 7.334% and 14.594% and 2.431% and 9.511% and 1.874%
same,Ki,mMOR [1],21.5 ± 0.8 nM
same,EC50,mDOR [2],71.4 nM
same,Agonist activity of 7OH analogs at mDOR,mDOR [2]; Log[drug] (M) -5,79.5205 and 79.1947 and 68.9488 and 85.2247 and 78.2035 and 78.3957 and 62.0758 and 81.7668 and 72.4775
same,Agonist activity of 7OH analogs at mDOR,mDOR [2]; Log[drug] (M) -6,49.9165 and 58.342 and 65.4236 and 68.6722 and 65.6062 and 68.2461 and 72.0352 and 62.2673 and 61.4936
same,Agonist activity of 7OH analogs at mDOR,mDOR [2]; Log[drug] (M) -7,29.0999 and 46.5592 and 41.3409 and 38.1857 and 36.2209 and 62.8298 and 64.7985 and 75.1004
same,Agonist activity of 7OH analogs at mDOR,mDOR [2]; Log[drug] (M) -8,17.0946 and 20.9939 and 16.1181 and 8.745 and 16.0659 and 5.863 and 49.6952 and 40.7941 and 63.5779
same,Agonist activity of 7OH analogs at mDOR,mDOR [2]; Log[drug] (M) -9,27.3274 and 1.192 and 34.2965 and 12.9525 and -4.552 and -8.401 and 25.2583 and 24.354 and 24.6431
same,Agonist activity of 7OH analogs at mDOR,mDOR [2]; Log[drug] (M) -10,39.904 and 39.7156 and 42.1881 and 15.8228 and 9.006 and 14.7091 and 41.1226 and 23.2827 and 29.2586
same,Agonist activity of 7OH analogs at mDOR,mDOR [2]; Log[drug] (M) -11,3.455 and 6.714 and 6.951 and -3.421 and 2.4315 and 1.875 and 9.138 and 13.5385
same,Agonist activity of 7OH analogs at mDOR,mDOR [2]; Log[drug] (M) -13,3.619 and 5.368 and -8.987 and -7.007 and 2.297 and 7.3103 and -1.541 and -0.9135 and 2.455
same,Emax,mDOR [2]; read-out: Emax,72%
same,EC50,hDOR,99.9 nM
same,Agonist activity of 7OH analogs at hDOR,hDOR; Log[drug] (M) -5,59.4902 and 54.7394 and 48.113 and 45.4731 and 42.3531 and 41.8085 and 33.7355 and 48.8189 and 36.1755
same,Agonist activity of 7OH analogs at hDOR,hDOR; Log[drug] (M) -6,47.0072 and 54.0661 and 57.5431 and 39.2612 and 45.3193 and 38.3255 and 32.249 and 29.9213 and 37.5943
same,Agonist activity of 7OH analogs at hDOR,hDOR; Log[drug] (M) -7,27.5943 and 29.9093 and 13.7827 and 13.3703 and 19.5028 and 21.8057 and 32.1543 and 37.3674 and 42.4632
same,Agonist activity of 7OH analogs at hDOR,hDOR; Log[drug] (M) -8,27.0326 and 26.8622 and 6.318 and -2.952 and 5.202 and 3.255 and 18.5072 and 16.8026 and 16.758
same,Agonist activity of 7OH analogs at hDOR,hDOR; Log[drug] (M) -9,15.8661 and 3.122 and 22.479 and 1.833 and -4.308 and 2.475 and 15.4988 and 8.368 and 7.075
same,Agonist activity of 7OH analogs at hDOR,hDOR; Log[drug] (M) -10,31.7942 and 19.5741 and 16.1123 and 10.5331 and 9.484 and 5.51 and 21.6698
same,Agonist activity of 7OH analogs at hDOR,hDOR; Log[drug] (M) -11,10.918 and -1.6818 and 2.572 and 2.605 and 5.418 and 12.5121 and 11.3973 and 0.7522 and -0.994
same,Agonist activity of 7OH analogs at hDOR,hDOR; Log[drug] (M) -13,3.025 and -6.776 and 3.7513 and 10.1702 and 6.174 and 15.4423 and -4.715 and 5.3718 and -0.6565
same,Emax,hDOR; read-out: Emax,45%
same,Agonist activity of 7OH analogs at hKOR,hKOR; Log [drug](M) -5,25.1107 and 37.2516 and 25.09 and 18.6326 and 7.697 and 7.056 and 12.3573 and 15.4119 and 15.9917
same,Agonist activity of 7OH analogs at hKOR,hKOR; Log [drug](M) -6,26.3842 and 27.9158 and 17.2556 and 19.1124 and 15.0208 and 6.652 and 13.1771 and 3.299 and 8.814
same,Agonist activity of 7OH analogs at hKOR,hKOR; Log [drug](M) -7,10.6234 and 4.588 and 26.8644 and 8.68 and -0.2355 and 14.6509 and 3.557 and -6.963 and -8.284
same,Agonist activity of 7OH analogs at hKOR,hKOR; Log [drug](M) -8,5.978 and -10.4494 and 7.122 and 8.973 and 3.679 and 0.5669 and 3.537 and -8.354 and -5.217
same,Agonist activity of 7OH analogs at hKOR,hKOR; Log [drug](M) -9,4.358 and -4.206 and -18.6896 and -3.311 and 1.614 and -2.537 and 1.131 and 5.305 and 46.2002
same,Agonist activity of 7OH analogs at hKOR,hKOR; Log [drug](M) -10,-9.33 and 0.6018 and -2.152 and 0.113 and -1.397 and 4.8046 and -5.84 and -6.29 and 4.4418
same,Agonist activity of 7OH analogs at hKOR,hKOR; Log [drug](M) -11,2.533 and -16.0954 and -7.281 and -0.5606 and -1.386 and 5.188 and 3.6558 and -6.195 and -4.675
same,Agonist activity of 7OH analogs at hKOR,hKOR; Log [drug](M) -13,-2.907 and -1.906 and 4.813 and 2.257 and -10 and 7.743 and -0.9804 and -0.456 and 1.436
same,Ki,mDOR [3],88.5 ± 9.9 nM
same,Agonist activity of 7OH analogs at rKOR,rKOR; Log [drug](M) -5,51.4853 and 69.9742 and 40.1102 and 17.9877 and 23.0672 and 30.6086 and 23.1026 and 36.1112 and 26.5447
same,Agonist activity of 7OH analogs at rKOR,rKOR; Log [drug](M) -6,50.3386 and 47.4584 and 37.1736 and 16.4913 and 27.1082 and 15.3746 and 22.6508 and 23.988 and 23.2951
same,Agonist activity of 7OH analogs at rKOR,rKOR; Log [drug](M) -7,32.3706 and 5.504 and 6.859 and 19.3779 and 10.5115 and 15.4551 and 8.6 and 9.151 and 16.9313
same,Agonist activity of 7OH analogs at rKOR,rKOR; Log [drug](M) -8,4.174 and 5.52 and 21.8967 and -3.058 and 2.36 and 0.6978 and 14.0563 and 6.31 and 24.1641
same,Agonist activity of 7OH analogs at rKOR,rKOR; Log [drug](M) -9,4.922 and -12.3356 and 11.254 and 8.301 and 17.6392 and 14.4513 and 3.607 and 6.21 and -1.551
same,Agonist activity of 7OH analogs at rKOR,rKOR; Log [drug](M) -10,-1.1625 and -7.143 and 8.305 and 14.5638 and 5.983 and 1.382 and -0.5163 and -2.6368 and 4.024
same,Agonist activity of 7OH analogs at rKOR,rKOR; Log [drug](M) -11,3.848 and 0.4662 and 0.6482 and 7.796 and 8.5204 and -1.878 and 0.3369 and -2.372 and 2.035
same,Agonist activity of 7OH analogs at rKOR,rKOR; Log [drug](M) -13,5.7561 and 2.46 and -0.5992 and 11.3924 and -1.857 and 11.6902 and 1.603 and -2.596 and 3.807
same,Tail flick (%MPE),CD1 mice,100.00 %MPE (8×) and 57.97 %MPE and 52.05 %MPE
same,Tail flick latency,CD1 mice,10 (8×) and 7.1 and 6.5
same,EC50,mMOR [4],48 nM
same,cAMP %,"mMOR [4]; Log[drug] (M) -5, mMOR",54.7418% and 39.306% and 62.8715% and 90.7674% and 85.3805% and 81.3701% and 80.1578% and 78.2326% and 79.4832%
same,cAMP %,"mMOR [4]; Log[drug] (M) -6, mMOR",51.4904% and 44.0439% and 41.1377% and 71.7778% and 87.0279% and 84.9352% and 65.6946% and 62.0616% and 68.2077%
same,cAMP %,"mMOR [4]; Log[drug] (M) -7, mMOR",31.3362% and 29.5321% and 20.0587% and 64.2387% and 61.8389% and 74.7851% and 53.7172% and 48.585% and 45.7301%
same,cAMP %,"mMOR [4]; Log[drug] (M) -8, mMOR",9.25% and 16.4555% and 10.0292% and 22.5933% and 31.4368% and 25.3107% and 17.3146% and 8.444% and 13.6716%
same,cAMP %,"mMOR [4]; Log[drug] (M) -9, mMOR",6.25% and 5.067% and 3.569% and -0.5857% and 7.672% and -7.0867% and 8.23% and -1.022% and 10.8029%
same,cAMP %,"mMOR [4]; Log[drug] (M) -10, mMOR",12.6265% and -11.9755% and 9.001% and 8.7384% and -5.2017% and 8.648% and -2.705% and -3.188% and 5.894%
same,cAMP %,"mMOR [4]; Log[drug] (M) -11, mMOR",-0.9102% and -0.5945% and 1.505% and 10.3177% and 11.6% and 5.328% and 6.124% and -1.189% and -0.6754%
same,cAMP %,"mMOR [4]; Log[drug] (M) -13, mMOR, cAMP inhibition as % of DAMGO",3.306% and 2.892% and -4.359% and 9.797% and 10.0834% and 11.919% and 5.129% and 4.129% and 1.2769%
same,Emax,"mMOR [4]; mMOR, maximal inhibitory effect on cAMP levels relative to DAMGO",70%
